Experimental data from article PMC3100590 (Journal of medicinal chemistry, 2011).
Read-outs that look alike come from different tables or passages of the source. Values belong to the molecule of their own block, whether it stands above or below them.

Assays:
dopamine D1 receptors = dopamine D1 receptors (Homo sapiens, UniProt P21728); assay: Dopamine D1 receptor binding; conditions: data not shown
[1] = target: T1, human D3 dopamine receptor (D3R) (Homo sapiens, UniProt P35462); format: binding; conditions: for decrease of D3R binding affinity on replacing the amide by the amine linker: amine analogue vs corresponding amide (13b vs 19; 15b vs 8j); for D2/D3: ratio of Ki values
T1 sequence (P35462 whole entry): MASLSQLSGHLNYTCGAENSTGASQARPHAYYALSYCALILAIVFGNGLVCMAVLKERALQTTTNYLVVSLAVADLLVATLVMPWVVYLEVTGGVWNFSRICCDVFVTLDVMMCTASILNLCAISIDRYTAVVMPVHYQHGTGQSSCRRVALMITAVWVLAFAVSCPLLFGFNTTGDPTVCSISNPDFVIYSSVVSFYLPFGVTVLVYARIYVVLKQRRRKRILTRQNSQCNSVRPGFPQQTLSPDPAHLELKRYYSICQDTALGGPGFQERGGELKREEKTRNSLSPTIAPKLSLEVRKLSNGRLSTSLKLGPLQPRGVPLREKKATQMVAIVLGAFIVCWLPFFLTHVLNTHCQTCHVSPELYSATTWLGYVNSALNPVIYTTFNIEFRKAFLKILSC

hD3 (D3R) = hD3 (D3R) (Homo sapiens, UniProt P35462); assay: Quinpirole-induced mitogenesis assay in hD3-transfected CHOp cells; format: cell-based
Chain of hD3 (D3R) (P35462 whole entry): as above

[2] = target: human D2L dopamine receptor (D2R) (Homo sapiens, UniProt P14416); format: binding; conditions: for Ki: read-out: D2R Ki ± S.E.M., Table 2, HEK 293 hD2LR, 125I-IABN
Chain of human D2L dopamine receptor (D2R) (P14416 whole entry): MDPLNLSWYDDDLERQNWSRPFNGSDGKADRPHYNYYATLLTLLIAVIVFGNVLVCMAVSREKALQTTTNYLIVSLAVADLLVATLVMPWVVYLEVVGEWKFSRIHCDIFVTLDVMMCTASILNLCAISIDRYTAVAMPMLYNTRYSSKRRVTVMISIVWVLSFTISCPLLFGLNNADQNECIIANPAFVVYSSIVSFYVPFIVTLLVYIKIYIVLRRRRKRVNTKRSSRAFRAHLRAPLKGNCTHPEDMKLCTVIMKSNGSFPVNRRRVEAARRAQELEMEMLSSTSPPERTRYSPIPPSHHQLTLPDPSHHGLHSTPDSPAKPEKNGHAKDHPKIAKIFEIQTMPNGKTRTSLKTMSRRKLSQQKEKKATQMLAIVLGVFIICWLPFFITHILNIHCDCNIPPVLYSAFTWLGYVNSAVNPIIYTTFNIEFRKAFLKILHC

[3] = target: T1, human D3 dopamine receptor (D3R); conditions: Table 2; previously reported, ref [6]; cited from earlier work

Chain of dopamine D1 receptors (P21728 whole entry): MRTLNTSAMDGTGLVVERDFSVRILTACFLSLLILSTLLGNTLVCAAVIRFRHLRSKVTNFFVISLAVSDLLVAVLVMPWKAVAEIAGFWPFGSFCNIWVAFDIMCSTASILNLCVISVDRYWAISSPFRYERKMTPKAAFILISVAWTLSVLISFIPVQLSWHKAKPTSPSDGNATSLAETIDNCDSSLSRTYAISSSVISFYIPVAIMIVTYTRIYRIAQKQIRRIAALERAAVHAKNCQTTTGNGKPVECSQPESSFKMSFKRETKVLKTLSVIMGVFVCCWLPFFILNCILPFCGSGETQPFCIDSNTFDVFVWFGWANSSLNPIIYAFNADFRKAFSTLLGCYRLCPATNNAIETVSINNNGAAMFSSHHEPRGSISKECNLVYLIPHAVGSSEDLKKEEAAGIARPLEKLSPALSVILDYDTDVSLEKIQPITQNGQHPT

decrease of D3R binding affinity on replacing the amide by the amine linker [1]: 150 fold | D2R binding affinity increased on replacing the amide by the amine linker ([2]; 15b vs amide 8j): ~ 2 fold
Molecule: CN(CCC(F)CN1CCN(c2cccc(Cl)c2Cl)CC1)Cc1ccc2c(c1)Cc1ccccc1-2 (centres unmarked) [Compound 15b, N-((9H-Fluoren-2-yl)methyl)-4-(4-(2,3-dichlorophenyl)piperazin-1-yl)-3-fluoro-N-methylbutan-1-amine]

D3R-selectivity over D2R [1]: 2 fold | D2/D3 ([1]; Table 2): 2 | decrease of D3R binding affinity on replacing the amide by the amine linker [1]: 126 fold | D2R binding affinity reduced on replacing the amide by the amine linker ([2]; 13b vs amide 19): 2.5 fold | Ki [2]: 162 ± 1.2 nM
Molecule: N-(Benzo[b]thiophen-2-ylmethyl)-4-(4-(2,3-dichlorophenyl)piperazin-1-yl)-N-propylbutan-1-amine [Compound 13b]

D2/D3 ([1]; Table 2): 1 | Ki ([1]; read-out: D3R Ki ± S.E.M., Table 2, HEK 293 hD3R, 125I-IABN): 67.9 ± 2.4 nM | Ki [2]: 69.9 ± 7.3 nM
Molecule: N-(Benzo[b]thiophen-2-ylmethyl)-4-(4-(2-methoxyphenyl)piperazin-1-yl)-N-propylbutan-1-amine [Compound 13a]

Further lines, the molecule ahead of its results:

Molecule: O=C(NCCC(F)CN1CCN(c2cccc(Cl)c2Cl)CC1)c1cc2ccccc2o1 (centres unmarked) [Compound 8d, N-(4-(4-(2,3-Dichlorophenyl)piperazin-1-yl)-3-fluorobutyl)benzofuran-2-carboxamide]
binding at dopamine D1 receptors (dopamine D1 receptors): selectivity over D1

Molecule: O=C(NCCC(F)CN1CCN(c2cccc(Cl)c2Cl)CC1)c1cc2ccccc2[nH]1 (centres unmarked) [Compound 8h, N-(4-(4-(2,3-Dichlorophenyl)piperazin-1-yl)-3-fluorobutyl)-1H-indole-2-carboxamide]
D3R-selectivity over D2R [1]: > 130 fold

Molecule: COc1ccccc1N1CCN(CC(F)CCNC(=O)c2ccc3c(c2)Cc2ccccc2-3)CC1 (centres unmarked) [Compound 8i, N-(3-Fluoro-4-(4-(2-methoxyphenyl)piperazin-1-yl)butyl)-9H-fluorene-2-carboxamide]
binding at dopamine D1 receptors (dopamine D1 receptors): selectivity over D1

Molecule: O=C(NCCC(F)CN1CCN(c2cccc(Cl)c2Cl)CC1)c1ccc2c(c1)Cc1ccccc1-2 (centres unmarked) [Compound 8j, N-(4-(4-(2,3-Dichlorophenyl)piperazin-1-yl)-3-fluorobutyl)-9H-fluorene-2-carboxamide]
D3R-selectivity over D2R [1]: > 1000 fold | binding at dopamine D1 receptors (dopamine D1 receptors): selectivity over D1

Molecule: COc1ccccc1N1CCN(CC(F)CCNC(=O)c2cc3ccccc3s2)CC1 (centres unmarked) [Compound 8k, N-(3-Fluoro-4-(4-(2-methoxyphenyl)piperazin-1-yl)butyl)benzo[b]thiophene-2-carboxamide]
D3R-selectivity over D2R [1]: > 60 fold

Molecule: O=C(NCCC(F)CN1CCN(c2cccc(Cl)c2Cl)CC1)c1cc2ccccc2s1 (centres unmarked) [Compound 8l, N-(4-(4-(2,3-Dichlorophenyl)piperazin-1-yl)-3-fluorobutyl)benzo[b]thiophene-2-carboxamide]
D3R-selectivity over D2R [1]: > 130 fold

Molecule: COc1ccc2[nH]c(C(=O)NCCC(F)CN3CCN(c4ccccc4OC)CC3)cc2c1 (centres unmarked) [Compound 8m, N-(3-Fluoro-4-(4-(2-methoxyphenyl)piperazin-1-yl)butyl)-5-methoxy-1H-indole-2-carboxamide]
D3R-selectivity over D2R [1]: > 60 fold

Molecule: COc1ccc2[nH]c(C(=O)NCCC(F)CN3CCN(c4cccc(Cl)c4Cl)CC3)cc2c1 (centres unmarked) [Compound 8n, N-(4-(4-(2,3-Dichlorophenyl)piperazin-1-yl)-3-fluorobutyl)-5-methoxy-1H-indole-2-carboxamide]
EC50 (hD3 (D3R)): 4.9 nM | functional profile in the D3R mitogenesis assay (hD3 (D3R)): more potent partial agonist than an antagonist | D3 mitogenesis % stimulation (hD3 (D3R); agonist mode, value in parentheses): 14.9% | D3R-selectivity over D2R [1]: > 130 fold

Molecule: COc1ccccc1N1CCN(CCCCNC(=O)c2ccc3c(c2)Cc2ccccc2-3)CC1 [Compound 18, N-(4-(4-(2-methoxyphenyl)piperazin-1-yl)butyl)-9H-fluorene-2-carboxamide]
D2/D3 [3]: 185
